The text below walks through data of US10213429B2, “Imidazo-pyrazinyl derivatives useful as soluble guanylate cyclase activators” (Merck Sharp & Dohme Corp., priority 2015, dated 2019).

In one experiment the target is T1, sGC α1/β1 heterodimer (Homo sapiens, UniProt Q02108+Q02153).
T1 construct: expressed in transfected cells; host or cells: CHO-K1 (clone #7, CHO-K1/sGC)
T1 sequence (Q02108 1-690): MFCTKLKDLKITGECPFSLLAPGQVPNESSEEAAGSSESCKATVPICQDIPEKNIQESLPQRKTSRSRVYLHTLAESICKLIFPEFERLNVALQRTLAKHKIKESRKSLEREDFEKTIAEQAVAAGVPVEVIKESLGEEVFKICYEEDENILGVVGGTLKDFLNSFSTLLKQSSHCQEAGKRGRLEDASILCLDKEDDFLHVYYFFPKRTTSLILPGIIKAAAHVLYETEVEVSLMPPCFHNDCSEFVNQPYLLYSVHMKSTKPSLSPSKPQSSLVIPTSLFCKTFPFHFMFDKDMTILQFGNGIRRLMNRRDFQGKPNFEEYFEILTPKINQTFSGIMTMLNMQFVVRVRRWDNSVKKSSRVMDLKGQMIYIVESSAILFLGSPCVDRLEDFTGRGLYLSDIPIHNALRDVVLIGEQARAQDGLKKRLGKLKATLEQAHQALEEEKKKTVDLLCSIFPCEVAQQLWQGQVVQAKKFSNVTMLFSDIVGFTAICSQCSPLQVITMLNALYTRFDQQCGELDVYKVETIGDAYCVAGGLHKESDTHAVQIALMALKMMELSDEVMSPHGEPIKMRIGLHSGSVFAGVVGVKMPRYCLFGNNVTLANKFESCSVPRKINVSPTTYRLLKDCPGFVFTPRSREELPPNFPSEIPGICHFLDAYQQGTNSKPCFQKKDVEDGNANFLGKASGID
T1 sequence (Q02153 1-619): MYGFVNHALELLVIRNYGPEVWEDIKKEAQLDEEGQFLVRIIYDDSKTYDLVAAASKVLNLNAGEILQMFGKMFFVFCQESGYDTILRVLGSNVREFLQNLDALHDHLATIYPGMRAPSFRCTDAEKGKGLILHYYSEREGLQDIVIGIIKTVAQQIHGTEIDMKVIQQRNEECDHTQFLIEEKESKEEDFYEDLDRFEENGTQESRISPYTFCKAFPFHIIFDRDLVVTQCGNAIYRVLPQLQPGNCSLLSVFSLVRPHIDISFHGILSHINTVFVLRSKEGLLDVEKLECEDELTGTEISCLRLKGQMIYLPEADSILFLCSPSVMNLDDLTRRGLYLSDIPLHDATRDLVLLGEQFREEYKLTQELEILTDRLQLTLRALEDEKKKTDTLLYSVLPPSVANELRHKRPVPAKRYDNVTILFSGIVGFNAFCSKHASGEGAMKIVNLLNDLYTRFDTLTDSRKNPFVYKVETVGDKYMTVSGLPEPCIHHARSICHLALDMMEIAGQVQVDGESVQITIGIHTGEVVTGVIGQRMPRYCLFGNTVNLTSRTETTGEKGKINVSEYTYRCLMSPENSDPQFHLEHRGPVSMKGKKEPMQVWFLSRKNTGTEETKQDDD
The experiment is described as follows: Cell-Based sGC Functional Assay (CASA Assay), cGMP by HTRF in CHO-K1/sGC cells. The note with it: for Emax: CHO-K1, percent activation relative to maximum cGMP production of Compound A (= 100%), read-out: % Act.; for EC50: cGMP production, 1 hr at 37° C., 4P fit, presence or absence of 1 μM DETA-NO not given, read-out: IP (nM) (inflection point). The procedure, abridged:
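CHO-K1 cells stably expressing human sGC α1/β1, in EBSS buffer with 5 mM MgCl2, 10 mM HEPES, 0.05% BSA and 0.5 mM IBMX, incubated with compound (2.5% DMSO) ± 1 μM DETA-NO, 1 h, 37 °C. Intracellular cGMP read by HTRF; activity as % of reference activator maximum, IP from 4-parameter fit.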
A general note: Time-resolved FRET reads energy transfer from a long-lived donor to a nearby acceptor.

For experiment [1], the system named is Spontaneously hypertensive rats (SHR). Kind of experiment: Acute Efficacy in Spontaneously Hypertensive Rats (SHR), telemetry blood pressure. It counts as in vivo, rat. The note with it: SHR male. The text has this:
Acute Efficacy in Spontaneously Hypertensive Rats (SHR)
Spontaneously hypertensive rats (SHR, male, Charles River) were implanted with DSI TA11PA-C40 telemetry device (Data Sciences, Inc., St. Paul, Minn.) under isoflurane or ketamine/metomidine anesthesia. The telemetry unit catheter was inserted into the descending aorta via the femoral artery and the telemetry device was implanted subcutaneously in the left flank area. Animals were allowed to recover from surgery for 14 days before the start of any studies. Blood pressure, heart rate, and activity signals from conscious, freely moving rats were recorded continuously for 30 seconds every 10 minutes. On the day prior to administration of compound, a single oral dose of vehicle (10% transcutol/20% Cremophor/70% water) was administered to all animals to establish baseline control data. The blood pressure lowering efficacy of compound (PO) or vehicle was evaluated following a single oral gavage. Data were collected as hourly averages, and changes in blood pressure were calculated by subtracting control baseline data on an hourly basis. Animals were maintained on normal diet with a 12 hour light-dark cycle.
Maximum peak decreases of systolic blood pressure (SBP) in SHR at a particular P.O. dose (mpk milligrams per kilogram) for the following representative compounds are provided. • Category A=SBP in SHRs<20 mmHg; Category B=SBP in SHRs 20-40 mmHg; • Category C=SBP in SHRs>40 mmHg

For the molecule `CC1(c2ccc(F)cn2)C(=O)Nc2nc(-c3cn4ccnc4c(Cc4ccc(F)cc4)n3)ncc21` (stereo not drawn) [Example 5B, 2-(8-(4-fluorobenzyl)imidazo[1,2-a]pyrazin-6-yl)-5-(5-fluoropyridin-2-yl)-5-methyl-5H-pyrrolo[2,3-d]pyrimidin-6(7H)-one], on sGC α1/β1 heterodimer, the Emax came out at 117% and the EC50 was 30 nM. Besides, the “Cat. (maximum peak decrease of systolic blood pressure (SBP) in SHR)” value in experiment [1] (single oral dose 0.3 mpk P.O.) is on record as “B (Category B=SBP in SHRs 20-40 mmHg)”.
For `CC1(c2ccc(Cl)cc2)C(=O)Nc2nc(-c3cn4ccnc4c(CCC(F)(F)C(F)(F)F)n3)ncc21` (stereo not drawn) [Example 3A, 5-(4-chlorophenyl)-5-methyl-2-(8-(3,3,4,4,4-pentafluorobutyl)imidazo[1,2-a]pyrazin-6-yl)-5H-pyrrolo[2,3-d]pyrimidin-6(7H)-one], on sGC α1/β1 heterodimer, the Emax stood at 118% and the EC50 is 34 nM. In addition, in experiment [1] (single oral dose 1.0 mpk P.O.), the “Cat. (maximum peak decrease of systolic blood pressure (SBP) in SHR)” value is listed as “B (Category B=SBP in SHRs 20-40 mmHg)”.
As to `CC1(c2ccc(F)c(F)c2)C(=O)Nc2nc(-c3cn4ccnc4c(CCC(F)(F)F)n3)ncc21` (stereo not drawn) [Example 37B, 5-(3,4-difluorophenyl)-5-methyl-2-(8-(3,3,3-trifluoropropyl)imidazo[1,2-a]pyrazin-6-yl)-5H-pyrrolo[2,3-d]pyrimidin-6(7H)-one], at sGC α1/β1 heterodimer, the Emax is 125% and the EC50 is 800 nM. Moreover, in experiment [1] (single oral dose 3.0 mpk P.O.), the “Cat. (maximum peak decrease of systolic blood pressure (SBP) in SHR)” value is reported as “B (Category B=SBP in SHRs 20-40 mmHg)”.
Turning to `CC1(c2ccc(F)cc2)C(=O)Nc2nc(-c3cn4ccnc4c(CCC(F)(F)C(F)(F)F)n3)nc(C(N)=O)c21` (stereo not drawn) [Example 86A, 5-(4-Fluorophenyl)-5-methyl-6-oxo-2-(8-(3,3,4,4,4-pentafluorobutyl)imidazo[1,2-a]pyrazin-6-yl)-6,7-dihydro-5H-pyrrolo[2,3-d]pyrimidine-4-carboxamide], at sGC α1/β1 heterodimer, the Emax stood at 109% and the EC50 is 57 nM. In experiment [1] (single oral dose 1.0 mpk P.O.), the “Cat. (maximum peak decrease of systolic blood pressure (SBP) in SHR)” value is recorded as “B (Category B=SBP in SHRs 20-40 mmHg)”.
Take `CC1(c2ccc(F)cn2)C(=O)Nc2nc(-c3cn4ccnc4c(CCC(F)(F)C(F)(F)F)n3)nc(O)c21` (single isomer, unassigned) [Example 18B, 5-(5-fluoropyridin-2-yl)-4-hydroxy-5-methyl-2-(8-(3,3,4,4,4-pentafluorobutyl)imidazo[1,2-a]pyrazin-6-yl)-5H-pyrrolo[2,3-d]pyrimidin-6(7H)-one]: at sGC α1/β1 heterodimer, the Emax came out at 78% and the EC50 stood at 365 nM. Moreover, in experiment [1] (single oral dose 3.0 mpk P.O.), the “Cat. (maximum peak decrease of systolic blood pressure (SBP) in SHR)” value was “A (Category A=SBP in SHRs<20 mmHg)”.
The like results for `O=C1Nc2nc(-c3cn4ccnc4c(CCCC(F)(F)F)n3)ncc2C1(c1ccc(OC(F)(F)F)cc1)C1CC1` (stereo not drawn) [Example 52A, 5-cyclopropyl-2-(8-(4,4,4-trifluorobutyl)imidazo[1,2-a]pyrazin-6-yl)-5-(4-(trifluoromethoxy)phenyl)-5H-pyrrolo[2,3-d]pyrimidin-6(7H)-one] were, in that order, 155%, 791 nM and “A (Category A=SBP in SHRs<20 mmHg)”.
With `CC1(c2ccc(Cl)cn2)C(=O)Nc2nc(-c3cn4ccnc4c(CCCC(F)(F)F)n3)nc(O)c21` (stereo not drawn) [Example 28A, 5-(5-chloropyridin-2-yl)-4-hydroxy-5-methyl-2-(8-(4,4,4-trifluorobutyl)imidazo[1,2-a]pyrazin-6-yl)-5H-pyrrolo[2,3-d]pyrimidin-6(7H)-one], on sGC α1/β1 heterodimer, the Emax was determined as 95% and the EC50 is 245 nM. Besides, in experiment [1] (single oral dose 1.0 mpk P.O.), the “Cat. (maximum peak decrease of systolic blood pressure (SBP) in SHR)” value is given as “A (Category A=SBP in SHRs<20 mmHg)”.
Consider `CCCCc1nc(-c2ncc3c(n2)NC(=O)C3(C)c2ccc(F)cn2)cn2ccnc12` (stereo not drawn) [Example 82B, 2-(8-butylimidazo[1,2-a]pyrazin-6-yl)-5-(5-fluoropyridin-2-yl)-5-methyl-5H-pyrrolo[2,3-d]pyrimidin-6(7H)-one], for which, on sGC α1/β1 heterodimer, the Emax is 63% and the EC50 stood at 37 nM. Further, in experiment [1] (single oral dose 1.0 mpk P.O.), the “Cat. (maximum peak decrease of systolic blood pressure (SBP) in SHR)” value is recorded as “C (Category C=SBP in SHRs>40 mmHg)”.
`CC1(c2ccc(Cl)cc2)C(=O)Nc2nc(-c3cn4ccnc4c(CCCC(F)(F)F)n3)nc(O)c21` (stereo not drawn) [Example 26A, 5-(4-chlorophenyl)-4-hydroxy-5-methyl-2-(8-(4,4,4-trifluorobutyl)imidazo[1,2-a]pyrazin-6-yl)-5H-pyrrolo[2,3-d]pyrimidin-6(7H)-one]: at sGC α1/β1 heterodimer, the Emax was 90% and the EC50 was 200 nM. Besides, the “Cat. (maximum peak decrease of systolic blood pressure (SBP) in SHR)” value in experiment [1] (single oral dose 3.0 mpk P.O.) is on record as “C (Category C=SBP in SHRs>40 mmHg)”.
For the molecule `CC1(c2ccc(F)cc2)C(=O)Nc2nc(-c3cn4ccnc4c(Cc4ccc(F)cc4)n3)nc(O)c21` (stereo not drawn) [Example 81A, 2-(8-(4-fluorobenzyl)imidazo[1,2-a]pyrazin-6-yl)-5-(4-fluorophenyl)-4-hydroxy-5-methyl-5H-pyrrolo[2,3-d]pyrimidin-6(7H)-one], at sGC α1/β1 heterodimer, the Emax turned out to be 104% and the EC50 was 144 nM. Further, in experiment [1] (single oral dose 1.0 mpk P.O.), the “Cat. (maximum peak decrease of systolic blood pressure (SBP) in SHR)” value is listed as “B (Category B=SBP in SHRs 20-40 mmHg)”.
`CC1(c2ccc(F)cn2)C(=O)Nc2nc(-c3cn4ccnc4c(CCC(F)(F)C(F)(F)F)n3)ncc21` (stereo not drawn) [Example 62B, 5-(5-fluoropyridin-2-yl)-5-methyl-2-(8-(3,3,4,4,4-pentafluorobutyl)imidazo[1,2-a]pyrazin-6-yl)-5H-pyrrolo[2,3-d]pyrimidin-6(7H)-one]: at sGC α1/β1 heterodimer, the Emax stood at 98% and the EC50 is 104 nM. The “Cat. (maximum peak decrease of systolic blood pressure (SBP) in SHR)” value in experiment [1] (single oral dose 1.0 mpk P.O.) is on record as “B (Category B=SBP in SHRs 20-40 mmHg)”.
The like results for `CCCc1nc(-c2ncc3c(n2)NC(=O)C3(C)c2ccc(Cl)cc2)cn2ccnc12` (stereo not drawn) [Example 39A, 5-(4-chlorophenyl)-5-methyl-2-(8-propylimidazo[1,2-a]pyrazin-6-yl)-5H-pyrrolo[2,3-d]pyrimidin-6(7H)-one] were, in that order, 101%, 92 nM and “A (Category A=SBP in SHRs<20 mmHg)”.
For `CC1(C(=O)NC2CC2)C(=O)Nc2nc(-c3cn4ccnc4c(Cc4ccc(F)cc4)n3)ncc21` (single isomer, unassigned) [Example 67A, N-Cyclopropyl-2-(8-(4-fluorobenzyl)imidazo[1,2-a]pyrazin-6-yl)-5-methyl-6-oxo-6,7-dihydro-5H-pyrrolo[2,3-d]pyrimidine-5-carboxamide] the same measures were 167%, 106 nM and “B (Category B=SBP in SHRs 20-40 mmHg)”.
